Source: US11034698B2, “Pyrazolo[ 1,5a]pyrimidine derivatives as IRAK4 modulators” (priority 2017, dated 2021)
Where a name gives a salt, the structure may show the parent alone.

molecular target: human IRAK4 (Homo sapiens (Human), UniProt Q9NWZ3); experiment: IRAK4 kinase inhibition, Transcreener fluorescence polarization (ADP); type: biochemical; details: not given
Description: Compounds were assayed for inhibition of human IRAK4 and IRAK1 catalytic activity using recombinant enzyme produced from insect cells. Full-length IRAK4 protein, carrying an N-terminal His6-Tag, was obtained from Life Technologies (Carlsbad, Calif., USA). The IRAK1 construct was produced internally and was comprised of IRAK1 residues Arg194 to Ser712, preceded by an NH2-terminal His6 tag and the coding sequence for glutathione-S-transferase.
Kinase activities were assayed using the Transcreener-Fluorecescence polarization platform (BelBrook Labs, Madison, Wis., USA) that measures amounts of the reaction product, ADP.

human IRAK4, sequence (Q9NWZ3 whole entry, the tested form may be a part): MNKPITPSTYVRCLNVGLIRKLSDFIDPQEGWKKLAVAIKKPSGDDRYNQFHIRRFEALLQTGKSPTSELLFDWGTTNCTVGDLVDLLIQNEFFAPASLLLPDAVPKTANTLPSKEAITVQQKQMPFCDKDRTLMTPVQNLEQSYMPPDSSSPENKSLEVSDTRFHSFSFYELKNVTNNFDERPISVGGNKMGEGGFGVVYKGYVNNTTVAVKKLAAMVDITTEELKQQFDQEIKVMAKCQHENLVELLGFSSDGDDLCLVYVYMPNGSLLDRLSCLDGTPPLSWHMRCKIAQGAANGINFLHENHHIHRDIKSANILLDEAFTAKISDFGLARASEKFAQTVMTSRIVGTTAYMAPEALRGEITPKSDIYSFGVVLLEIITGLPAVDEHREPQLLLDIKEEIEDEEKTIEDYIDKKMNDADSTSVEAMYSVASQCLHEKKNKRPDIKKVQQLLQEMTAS

SMILES	Ki [nM]
CC1(C)Cc2cc(NC(=O)c3cnn4cccnc34)c(OC[C@@H]3Cc4ccccc4[C@@H]3N)cc2O1 (single isomer, unassigned) [Example 29]	780
CC(C)Oc1cc2c(cc1NC(=O)c1cnn3cccnc13)CN([C@@H]1CCOC1)C2=O (single isomer, unassigned) [Example 69]	1.8
C[C@@H]1C[C@@H]2CN(c3cc4c(cc3NC(=O)c3cnn5cccnc35)CN(C[C@@H](F)C(C)(C)O)C4=O)CCN2C1 (single isomer, unassigned) [Example 111]	9.9
CC1(C)Cc2cc(NC(=O)c3cnn4cccnc34)c(N3CCN(C[C@H]4CCCC(=O)N4)CC3)cc2O1 (single isomer, unassigned) [Example 7]	10
CC1(C)Cc2cc(NC(=O)c3cnn4cccnc34)c(O[C@@H]3CN(CC(N)=O)C[C@H]3N)cc2O1 (single isomer, unassigned) [Example 20]	17

same assay, conditions: recombinant full-length His6-IRAK4 1.25 nM; 125 uM ATP; 125 uM peptide; 90 min; ATP Km 642 uM; read-out: IRAK4 Ki

SMILES	Ki [nM]
CC1(C)Cc2cc(NC(=O)c3cnn4cccnc34)c(N3CCN(C4COC4)CC3)cc2O1 [Example 13, N-(2,2-Dimethyl-6-(4-(oxetan-3-yl)piperazin-1-yl)-2,3-dihydrobenzofuran-5-yl)pyrazolo[1,5-a]pyrimidine-3-carboxamide]	8.1
CC(C)(O)[C@H](F)CN1Cc2cc(NC(=O)c3cnn4cccnc34)c(OC3COC3)cc2C1=O [Example 87, (R)-N-(2-(2-Fluoro-3-hydroxy-3-methylbutyl)-6-(oxetan-3-yloxy)-1-oxoisoindolin-5-yl)pyrazolo[1,5-a]pyrimidine-3-carboxamide]	0.59
Cc1noc(C)c1CN1CCN(c2cc3c(cc2NC(=O)c2cnn4cccnc24)CC(C)(C)O3)CC1 [Example 16, N-(6-(4-((3,5-Dimethylisoxazol-4-yl)methyl)piperazin-1-yl)-2,2-dimethyl-2,3-dihydrobenzofuran-5-yl)pyrazolo[1,5-a]pyrimidine-3-carboxamide]	14
CN1C[C@H](COc2cc3c(cc2NC(=O)c2cnn4cccnc24)CC(C)(C)O3)CC1=O [Example 24, (R)-N-(2,2-Dimethyl-6-((1-methyl-5-oxopyrrolidin-3-yl)methoxy)-2,3-dihydrobenzofuran-5-yl)pyrazolo[1,5-a]pyrimidine-3-carboxamide]	160
CC(C)(O)[C@H](F)CN1Cc2cc(NC(=O)c3cnn4cccnc34)c(N3CCC(CC(F)F)CC3)cc2C1=O [Example 96, (R)-N-(6-(4-(2,2-Difluoroethyl)piperidin-1-yl)-2-(2-fluoro-3-hydroxy-3-methylbutyl)-1-oxoisoindolin-5-yl)pyrazolo[1,5-a]pyrimidine-3-carboxamide]	1.5
CC1(C)Cc2cc(NC(=O)c3cnn4cccnc34)c(N3CCN(C[C@@H]4CCCC(=O)N4)CC3)cc2O1 [Example 6, (S)-N-(2,2-Dimethyl-6-(4-((6-oxopiperidin-2-yl)methyl)piperazin-1-yl)-2,3-dihydrobenzofuran-5-yl)pyrazolo[1,5-a]pyrimidine-3-carboxamide]	5.3
CCc1oc(=O)[nH]c1CN1CCN(c2cc3c(cc2NC(=O)c2cnn4cccnc24)CC(C)(C)O3)CC1 [Example 15, N-(6-(4-((5-Ethyl-2-oxo-2,3-dihydrooxazol-4-yl)methyl)piperazin-1-yl)-2,2-dimethyl-2,3-dihydrobenzofuran-5-yl)pyrazolo[1,5-a]pyrimidine-3-carboxamide]	9.4
CC(C)(C)Oc1cc2c(cc1NC(=O)c1cnn3cccnc13)CN(C[C@@H](F)C(C)(C)O)C2=O [Example 90, (R)-N-(6-(tert-Butoxy)-2-(2-fluoro-3-hydroxy-3-methylbutyl)-1-oxoisoindolin-5-yl)pyrazolo[1,5-a]pyrimidine-3-carboxamide]	0.61
CC(C)(O)[C@H](F)CN1Cc2cc(NC(=O)c3cnn4cccnc34)c(OCC(F)F)cc2C1=O [Example 65, (R)-N-(6-(2,2-Difluoroethoxy)-2-(2-fluoro-3-hydroxy-3-methylbutyl)-1-oxoisoindolin-5-yl)pyrazolo[1,5-a]pyrimidine-3-carboxamide]	0.26
Cc1ncsc1CN1CCN(c2cc3c(cc2NC(=O)c2cnn4cccnc24)CC(C)(C)O3)CC1 [Example 11, N-(2,2-Dimethyl-6-(4-((4-methylthiazol-5-yl)methyl)piperazin-1-yl)-2,3-dihydrobenzofuran-5-yl)pyrazolo[1,5-a]pyrimidine-3-carboxamide]	4.6
CCOc1cc2c(cc1NC(=O)c1cnn3cccnc13)CN(C[C@@H](F)C(C)(C)O)C2=O [Example 82, (R)-N-(6-Ethoxy-2-(2-fluoro-3-hydroxy-3-methylbutyl)-1-oxoisoindolin-5-yl)pyrazolo[1,5-a]pyrimidine-3-carboxamide]	0.37
CC(=O)Nc1ccn2ncc(C(=O)Nc3cc4c(cc3N(C)C)C(=O)N(C[C@@H](F)C(C)(C)O)C4)c2n1 [Example 131, (R)-5-Acetamido-N-(6-(dimethylamino)-2-(2-fluoro-3-hydroxy-3-methylbutyl)-1-oxoisoindolin-5-yl)pyrazolo[1,5-a]pyrimidine-3-carboxamide]	6.4
COc1cc2c(cc1NC(=O)c1cnn3ccc(C4CCNC4=O)nc13)CC(C)(C)O2 (stereo not shown) [Example 35, N-(6-Methoxy-2,2-dimethyl-2,3-dihydrobenzofuran-5-yl)-5-(2-oxopyrrolidin-3-yl)pyrazolo[1,5-a]pyrimidine-3-carboxamide]	100
CC1(C)Cc2cc(NC(=O)c3cnn4cccnc34)c(OC[C@@H]3Cc4ccccc4[C@H]3N)cc2O1 [Example 26, N-[6-[[(1S,2R)-1-Aminoindan-2-yl]methoxy]-2,2-dimethyl-3H-benzofuran-5-yl]pyrazolo[1,5-a]pyrimidine-3-carboxamide]	280
COc1cc2c(cc1NC(=O)c1cnn3ccc(Cl)nc13)CC(C)(C)O2 [Example 21, 5-Chloro-N-(6-methoxy-2,2-dimethyl-2,3-dihydrobenzofuran-5-yl)pyrazolo[1,5-a]pyrimidine-3-carboxamide]	110
Cc1nocc1CN1CCN(c2cc3c(cc2NC(=O)c2cnn4cccnc24)CC(C)(C)O3)CC1 [Example 14, N-(2,2-Dimethyl-6-(4-((3-methylisoxazol-4-yl)methyl)piperazin-1-yl)-2,3-dihydrobenzofuran-5-yl)pyrazolo[1,5-a]pyrimidine-3-carboxamide hydrochloride]	5.2
O=C(Nc1cc2c(cc1N1CCOCC1)C(=O)N(CC1CCOCC1)C2)c1cnn2cccnc12 [Example 92, N-[6-Morpholino-1-oxo-2-(tetrahydropyran-4-ylmethyl)isoindolin-5-yl]pyrazolo[1,5-a]pyrimidine-3-carboxamide]	3.7
COc1cc2c(cc1NC(=O)c1cnn3ccc(N4CCNCC4)nc13)CC(C)(C)O2 [Example 42, N-(6-Methoxy-2,2-dimethyl-2,3-dihydrobenzofuran-5-yl)-5-(piperazin-1-yl)pyrazolo[1,5-a]pyrimidine-3-carboxamide]	22
CC(C)(O)[C@H](F)CN1Cc2cc(NC(=O)c3cnn4cccnc34)c(O[C@H]3C[C@@H](F)C3)cc2C1=O [Example 61, N-[6-(3-Fluorocyclobutoxy)-2-[(2R)-2-fluoro-3-hydroxy-3-methyl-butyl]-1-oxo-isoindolin-5-yl]pyrazolo[1,5-a]pyrimidine-3-carboxamide]	0.28
CC(C)Oc1cc2c(cc1NC(=O)c1cnn3cccnc13)CN(C[C@@H](F)C(C)(C)O)C2=O [Example 78, N-[2-[(2R)-2-Fluoro-3-hydroxy-3-methyl-butyl]-6-isopropoxy-1-oxo-isoindolin-5-yl]pyrazolo[1,5-a]pyrimidine-3-carboxamide]	0.17
CCc1oncc1CN1CCN(c2cc3c(cc2NC(=O)c2cnn4cccnc24)CN(C[C@@H](F)C(C)(C)O)C3=O)CC1 [Example 103, (R)-N-(6-(4-((5-Ethylisoxazol-4-yl)methyl)piperazin-1-yl)-2-(2-fluoro-3-hydroxy-3-methylbutyl)-1-oxoisoindolin-5-yl)pyrazolo[1,5-a]pyrimidine-3-carboxamide]	5.4
Cc1ccc(-c2cc3c(cc2NC(=O)c2cnn4cccnc24)CC(C)(C)O3)nc1 [Example 145, N-[2,2-Dimethyl-6-(5-methyl-2-pyridyl)-3H-benzofuran-5-yl]pyrazolo[1,5-a]pyrimidine-3-carboxamide]	60
CC(C)N1Cc2cc(NC(=O)c3cnn4cccnc34)c(C3CC3)cc2C1=O [Example 97, N-(6-Cyclopropyl-2-isopropyl-1-oxoisoindolin-5-yl)pyrazolo[1,5-a]pyrimidine-3-carboxamide]	5.2
CC(C)(O)[C@H](F)CN1Cc2cc(NC(=O)c3cnn4cccnc34)c(N3CCN(CCn4ccnc4)CC3)cc2C1=O [Example 106, (R)-N-(6-(4-(2-(1H-Imidazol-1-yl)ethyl)piperazin-1-yl)-2-(2-fluoro-3-hydroxy-3-methylbutyl)-1-oxoisoindolin-5-yl)pyrazolo[1,5-a]pyrimidine-3-carboxamide]	2.1
Cc1ccc(-c2cc3c(cc2NC(=O)c2cnn4cccnc24)CN(C[C@@H](F)C(C)(C)O)C3=O)nc1 [Example 146, (R)-N-(2-(2-Fluoro-3-hydroxy-3-methylbutyl)-6-(5-methylpyridin-2-yl)-1-oxoisoindolin-5-yl)pyrazolo[1,5-a]pyrimidine-3-carboxamide]	8.1
CO[C@H]1C[C@@H]2CN(c3cc4c(cc3NC(=O)c3cnn5cccnc35)CN(C[C@@H](F)C(C)(C)O)C4=O)CCN2C1 [Example 108, N-(2-((R)-2-Fluoro-3-hydroxy-3-methylbutyl)-6-((7S,8aR)-7-methoxyhexahydropyrrolo[1,2-a]pyrazin-2(1H)-yl)-1-oxoisoindolin-5-yl)pyrazolo[1,5-a]pyrimidine-3-carboxamide]	1.3
